# Test results: ChEMBL document CHEMBL1201862, “PubChem BioAssay data set” (2004)
# Calls of active or inactive are those of the source.
# How the values were obtained:
# [1] = molecular target: T1, RNA-binding protein pos-1 (Caenorhabditis elegans, UniProt G5EF15); assay: inhibitors of POS-1/mex-3 RNA binding, dose response, biochemical, fluorescence polarization (AID 1964);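 further: purified POS-1 fused to maltose binding protein made in E. coli; potency of compounds blocking POS-1 binding to fluorescent RNA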
# T1 sequence (G5EF15 whole entry): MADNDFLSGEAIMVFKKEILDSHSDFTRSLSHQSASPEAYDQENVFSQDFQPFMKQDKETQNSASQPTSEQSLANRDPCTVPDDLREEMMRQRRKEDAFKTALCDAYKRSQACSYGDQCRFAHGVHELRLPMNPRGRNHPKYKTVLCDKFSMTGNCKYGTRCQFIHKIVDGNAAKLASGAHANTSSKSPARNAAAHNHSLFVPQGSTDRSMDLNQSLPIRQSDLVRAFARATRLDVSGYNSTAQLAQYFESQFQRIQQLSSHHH
# [2] = molecular target: T2, Zinc finger protein mex-5 (Caenorhabditis elegans, UniProt Q9XUB2); assay: MEX-5/TCR-2 RNA interaction inhibitors, dose response, biochemical, C. elegans, fluorescence polarization (AID 1960)
# T2 sequence (Q9XUB2 whole entry): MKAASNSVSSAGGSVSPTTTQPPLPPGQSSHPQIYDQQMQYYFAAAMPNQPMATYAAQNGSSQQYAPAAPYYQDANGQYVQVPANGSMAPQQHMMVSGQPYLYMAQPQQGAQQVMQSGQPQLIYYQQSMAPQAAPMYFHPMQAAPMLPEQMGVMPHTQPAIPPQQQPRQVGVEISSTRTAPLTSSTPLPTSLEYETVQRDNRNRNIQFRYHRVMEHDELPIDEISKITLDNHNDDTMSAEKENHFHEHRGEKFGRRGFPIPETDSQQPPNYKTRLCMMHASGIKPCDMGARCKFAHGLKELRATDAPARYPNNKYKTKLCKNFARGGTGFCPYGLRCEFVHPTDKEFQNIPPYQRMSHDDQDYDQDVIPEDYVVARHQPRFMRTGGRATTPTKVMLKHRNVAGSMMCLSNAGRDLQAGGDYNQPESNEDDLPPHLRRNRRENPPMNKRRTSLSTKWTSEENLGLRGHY
# [3] = molecular target: T3, Heat shock factor protein 1 (Mus musculus, UniProt P38532); assay: inhibition of MG132-induced HSE-luciferase signal, confirmation, cell-based, NIH3T3, luminescence, dose retest (AID 2382); type: functional;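 further: NIH3T3 fibroblasts with HSF1-driven luciferase reporter stressed by proteasome inhibitor MG132; luminescence from HSF1-driven luciferase expression after 8 hours of MG132 stress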
# T3 sequence (P38532 whole entry): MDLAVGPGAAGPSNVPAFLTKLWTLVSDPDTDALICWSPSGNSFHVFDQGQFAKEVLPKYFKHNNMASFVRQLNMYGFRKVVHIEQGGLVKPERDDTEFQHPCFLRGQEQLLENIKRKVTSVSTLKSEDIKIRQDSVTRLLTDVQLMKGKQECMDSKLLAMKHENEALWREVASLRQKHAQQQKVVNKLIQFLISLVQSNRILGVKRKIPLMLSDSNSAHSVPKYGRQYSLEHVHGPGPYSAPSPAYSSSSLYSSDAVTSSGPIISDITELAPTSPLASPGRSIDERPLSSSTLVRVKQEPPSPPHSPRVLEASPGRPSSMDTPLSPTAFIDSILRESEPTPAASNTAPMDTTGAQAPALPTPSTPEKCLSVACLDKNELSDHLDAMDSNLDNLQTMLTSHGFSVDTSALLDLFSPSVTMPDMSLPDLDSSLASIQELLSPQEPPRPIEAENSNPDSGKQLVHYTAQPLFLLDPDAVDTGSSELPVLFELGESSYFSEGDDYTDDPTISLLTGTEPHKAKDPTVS
# Cytochrome P450 1A2 = molecular target: T4, Cytochrome P450 1A2 (Homo sapiens, UniProt P05177);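 further: PubChem cytochrome P450 panel assay, CYP1A2 panel member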
# T4 sequence (P05177 whole entry): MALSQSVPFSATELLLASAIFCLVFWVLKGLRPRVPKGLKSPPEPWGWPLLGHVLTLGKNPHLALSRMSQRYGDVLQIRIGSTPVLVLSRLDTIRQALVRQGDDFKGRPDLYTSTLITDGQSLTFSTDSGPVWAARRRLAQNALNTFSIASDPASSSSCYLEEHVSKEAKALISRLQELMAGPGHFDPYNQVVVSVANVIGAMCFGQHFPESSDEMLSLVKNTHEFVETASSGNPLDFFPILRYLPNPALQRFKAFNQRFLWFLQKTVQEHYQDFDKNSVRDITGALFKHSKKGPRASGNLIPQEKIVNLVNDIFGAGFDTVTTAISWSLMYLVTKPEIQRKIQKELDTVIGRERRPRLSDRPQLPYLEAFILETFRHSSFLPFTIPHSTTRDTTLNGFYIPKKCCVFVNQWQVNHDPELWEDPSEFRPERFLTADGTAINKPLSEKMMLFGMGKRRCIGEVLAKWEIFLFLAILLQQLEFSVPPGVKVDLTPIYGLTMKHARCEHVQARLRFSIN
# Cytochrome P450 3A4 = Cytochrome P450 3A4 (Homo sapiens, UniProt P08684);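 further: CYP3A4 tested as one member of a cytochrome P450 panel screen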
# Cytochrome P450 2C9 = Cytochrome P450 2C9 (Homo sapiens, UniProt P11712)
# [4] = THP-1 cell cytotoxicity, dose response, cytotoxicity control for non-replicating M. tuberculosis project (AID 489025); type: functional
# cells = type: functional
# INS1 = assay: beta cell apoptosis inhibitors, cytokine rescue, dose response, luminescence, retest (AID 449756); type: functional, cell-based; settings: Rattus norvegicus;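 further: cell death triggered by IL-1 beta plus TNF-alpha plus IFN-gamma mixture; protective hits raise ATP signal compared with cytokine alone wells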
# Cytochrome P450 2C19 = Cytochrome P450 2C19 (Homo sapiens, UniProt P33261); assay: Cytochrome panel assay with activity outcomes. Panel member name: p450-cyp2c19 Compounds with AC50 equal or less than 10 uM are considered active; type: functional
# [5] = molecular target: T5, High affinity choline transporter 1 (Homo sapiens, UniProt Q9GZV3); assay: CHT inhibitors, dose response, cell-based, 5-point CRC, membrane potential dye (AID 504840); type: functional
# T5 sequence (Q9GZV3 whole entry): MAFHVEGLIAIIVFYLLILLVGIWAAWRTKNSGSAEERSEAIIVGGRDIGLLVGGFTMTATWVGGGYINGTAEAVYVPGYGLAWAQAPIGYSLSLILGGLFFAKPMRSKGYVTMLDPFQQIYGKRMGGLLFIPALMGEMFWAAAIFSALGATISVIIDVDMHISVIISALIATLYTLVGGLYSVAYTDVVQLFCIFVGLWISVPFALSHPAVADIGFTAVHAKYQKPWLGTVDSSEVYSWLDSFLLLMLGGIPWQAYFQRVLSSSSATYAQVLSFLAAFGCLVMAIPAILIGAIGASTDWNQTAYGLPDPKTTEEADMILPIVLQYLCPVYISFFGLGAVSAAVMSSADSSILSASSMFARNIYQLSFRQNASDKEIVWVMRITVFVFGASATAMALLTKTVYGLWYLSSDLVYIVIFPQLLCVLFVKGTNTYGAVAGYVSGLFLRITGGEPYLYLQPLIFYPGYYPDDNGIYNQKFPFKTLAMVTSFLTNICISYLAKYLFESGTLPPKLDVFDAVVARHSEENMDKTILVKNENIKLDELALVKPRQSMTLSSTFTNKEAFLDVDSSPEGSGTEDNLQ
# Cytochrome P450 2D6 = Cytochrome P450 2D6 (Homo sapiens, UniProt P10635);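 further: CYP2D6 member of a cytochrome P450 panel assay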
# Nonstructural protein 1 = Nonstructural protein 1 (Influenza A virus, UniProt Q194T2); type: functional, Influenza A virus (A/California/07/2009(H1N1))
# [6] = molecular target: Delta-type opioid receptor (Homo sapiens, UniProt P41143); assay: Counterscreen for agonists of heterodimerization of the mu 1 (OPRM1) and delta 1 (OPRD1) opioid receptors: Luminescence-based cell-based high throughput dose response assay to identify agonists of OPRD1 homodimerization. [Related pubchem assays (depositor defined):AID504326, AID504355, AID504692, AID504904, AID504905]; type: functional
# Mu-type opioid receptor = Mu-type opioid receptor (Homo sapiens, UniProt P35372); assay: Counterscreen for agonists of heterodimerization of the mu 1 (OPRM1) and delta 1 (OPRD1) opioid receptors: Luminescence-based cell-based high throughput dose response assay to identify agonists of OPRM1 homodimerization.; type: functional;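 further: U2OS cells expressing OPRM1 and beta-arrestin as split beta-galactosidase partners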
# [7] = molecular target: 5-hydroxytryptamine receptor 5A (Homo sapiens, UniProt P47898); assay: Counterscreen for agonists of OPRM1-OPRD1 heterodimerization: luminescence-based cell-based high throughput dose response assay to identify agonists of 5-hydroxytryptamine (serotonin) 5A receptor (HTR5A). [Related pubchem assays (depositor defined):AID504326, AID504355, AID504692, AID504904, AID504905]; type: functional
# Chain of 5-hydroxytryptamine receptor 5A (P47898 whole entry): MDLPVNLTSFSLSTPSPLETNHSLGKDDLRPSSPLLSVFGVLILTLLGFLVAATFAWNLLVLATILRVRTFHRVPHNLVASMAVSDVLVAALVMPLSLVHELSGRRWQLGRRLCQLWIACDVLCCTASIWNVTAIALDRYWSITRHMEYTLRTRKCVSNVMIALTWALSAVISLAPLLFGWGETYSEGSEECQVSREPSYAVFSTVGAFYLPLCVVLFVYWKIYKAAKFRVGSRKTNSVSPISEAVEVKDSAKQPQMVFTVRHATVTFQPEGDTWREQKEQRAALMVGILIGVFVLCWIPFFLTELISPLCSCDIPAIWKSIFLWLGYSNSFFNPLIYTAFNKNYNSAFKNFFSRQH
# Chain of Nonstructural protein 1 (Q194T2 whole entry): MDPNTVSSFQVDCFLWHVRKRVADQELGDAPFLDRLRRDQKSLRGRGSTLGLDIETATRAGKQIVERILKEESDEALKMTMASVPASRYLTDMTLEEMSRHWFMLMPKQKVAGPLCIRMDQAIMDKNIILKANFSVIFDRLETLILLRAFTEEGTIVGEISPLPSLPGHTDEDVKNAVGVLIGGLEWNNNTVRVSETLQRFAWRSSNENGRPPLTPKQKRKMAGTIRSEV
# Chain of Mu-type opioid receptor (P35372 whole entry): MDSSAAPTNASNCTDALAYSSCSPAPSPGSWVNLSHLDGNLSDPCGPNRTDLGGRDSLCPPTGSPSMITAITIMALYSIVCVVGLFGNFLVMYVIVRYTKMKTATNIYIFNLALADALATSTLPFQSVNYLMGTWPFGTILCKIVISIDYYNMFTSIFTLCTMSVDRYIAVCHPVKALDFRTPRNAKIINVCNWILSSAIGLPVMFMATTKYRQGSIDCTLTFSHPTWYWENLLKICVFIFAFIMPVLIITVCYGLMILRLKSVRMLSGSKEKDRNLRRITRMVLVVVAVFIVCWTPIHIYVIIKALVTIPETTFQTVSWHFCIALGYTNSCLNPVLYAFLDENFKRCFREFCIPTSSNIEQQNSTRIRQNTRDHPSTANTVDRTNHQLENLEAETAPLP
# Chain of Delta-type opioid receptor (P41143 whole entry): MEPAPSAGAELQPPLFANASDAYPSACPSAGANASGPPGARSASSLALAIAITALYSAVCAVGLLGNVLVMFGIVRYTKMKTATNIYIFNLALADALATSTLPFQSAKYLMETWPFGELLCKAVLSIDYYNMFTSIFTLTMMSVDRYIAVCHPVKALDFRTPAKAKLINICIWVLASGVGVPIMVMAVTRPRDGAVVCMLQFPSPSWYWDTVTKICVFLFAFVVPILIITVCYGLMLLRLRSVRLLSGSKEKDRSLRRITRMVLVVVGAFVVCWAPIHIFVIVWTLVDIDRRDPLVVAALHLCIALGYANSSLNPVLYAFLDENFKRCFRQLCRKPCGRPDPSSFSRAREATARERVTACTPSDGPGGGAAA
# Chain of Cytochrome P450 2C9 (P11712 whole entry): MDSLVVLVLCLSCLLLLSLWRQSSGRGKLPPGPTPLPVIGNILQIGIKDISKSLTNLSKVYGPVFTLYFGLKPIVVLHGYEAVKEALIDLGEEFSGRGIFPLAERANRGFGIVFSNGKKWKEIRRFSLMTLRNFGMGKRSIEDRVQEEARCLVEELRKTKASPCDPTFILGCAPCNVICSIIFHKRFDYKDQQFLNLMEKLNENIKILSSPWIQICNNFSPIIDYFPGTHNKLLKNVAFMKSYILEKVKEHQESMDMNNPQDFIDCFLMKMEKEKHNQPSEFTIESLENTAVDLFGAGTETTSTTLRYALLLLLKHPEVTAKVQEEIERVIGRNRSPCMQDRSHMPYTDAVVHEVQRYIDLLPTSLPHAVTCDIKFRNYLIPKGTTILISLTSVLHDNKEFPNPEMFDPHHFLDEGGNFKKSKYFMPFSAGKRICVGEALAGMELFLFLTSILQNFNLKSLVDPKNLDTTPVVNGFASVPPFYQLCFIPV
# Chain of Cytochrome P450 2C19 (P33261 whole entry): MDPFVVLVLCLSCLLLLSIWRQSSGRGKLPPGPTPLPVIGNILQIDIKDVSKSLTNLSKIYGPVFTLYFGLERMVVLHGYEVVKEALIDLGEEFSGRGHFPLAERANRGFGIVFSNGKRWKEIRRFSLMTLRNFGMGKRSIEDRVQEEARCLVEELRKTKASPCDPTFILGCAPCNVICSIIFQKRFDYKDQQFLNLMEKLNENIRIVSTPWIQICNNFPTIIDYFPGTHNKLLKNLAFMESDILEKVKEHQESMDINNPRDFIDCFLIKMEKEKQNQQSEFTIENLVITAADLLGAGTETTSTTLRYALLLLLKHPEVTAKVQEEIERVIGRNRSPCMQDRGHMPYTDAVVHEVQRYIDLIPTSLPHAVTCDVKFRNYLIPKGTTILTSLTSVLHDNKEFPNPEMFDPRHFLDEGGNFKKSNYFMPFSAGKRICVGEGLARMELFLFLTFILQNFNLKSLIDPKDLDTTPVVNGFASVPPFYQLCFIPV
# Chain of Cytochrome P450 3A4 (P08684 whole entry): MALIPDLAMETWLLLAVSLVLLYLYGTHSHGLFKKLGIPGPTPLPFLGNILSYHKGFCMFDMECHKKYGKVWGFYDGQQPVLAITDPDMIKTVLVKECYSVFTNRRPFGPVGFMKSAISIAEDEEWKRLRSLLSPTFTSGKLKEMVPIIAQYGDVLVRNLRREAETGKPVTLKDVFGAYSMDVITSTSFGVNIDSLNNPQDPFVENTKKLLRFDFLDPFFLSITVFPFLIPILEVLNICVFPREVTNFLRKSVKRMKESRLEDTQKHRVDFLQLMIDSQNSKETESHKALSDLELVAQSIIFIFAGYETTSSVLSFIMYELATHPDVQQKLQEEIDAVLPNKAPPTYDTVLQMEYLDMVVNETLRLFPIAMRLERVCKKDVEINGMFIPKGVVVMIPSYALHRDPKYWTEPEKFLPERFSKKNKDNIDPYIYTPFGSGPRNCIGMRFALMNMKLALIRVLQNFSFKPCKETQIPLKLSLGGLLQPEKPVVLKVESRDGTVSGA
# Chain of Cytochrome P450 2D6 (P10635 whole entry): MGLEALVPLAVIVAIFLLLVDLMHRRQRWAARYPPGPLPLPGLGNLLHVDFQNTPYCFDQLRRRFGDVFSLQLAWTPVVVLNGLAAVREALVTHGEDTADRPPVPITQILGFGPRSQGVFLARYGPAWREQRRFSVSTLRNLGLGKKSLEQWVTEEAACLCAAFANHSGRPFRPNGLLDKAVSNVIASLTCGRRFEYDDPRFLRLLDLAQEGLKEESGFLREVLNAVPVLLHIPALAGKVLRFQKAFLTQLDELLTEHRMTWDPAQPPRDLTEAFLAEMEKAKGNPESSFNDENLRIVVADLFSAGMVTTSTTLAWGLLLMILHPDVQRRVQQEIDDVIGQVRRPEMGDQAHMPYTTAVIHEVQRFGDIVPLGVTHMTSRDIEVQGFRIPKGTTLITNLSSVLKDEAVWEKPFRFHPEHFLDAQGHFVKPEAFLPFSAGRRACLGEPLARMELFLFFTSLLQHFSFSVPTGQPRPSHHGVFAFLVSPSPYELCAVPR
compound,measurement,setting,value
CC1(C)CC(=O)C2=C(C1)OC(N)=C(C#N)C2c1ccccc1 (stereo unspecified),EC50,[1],> 300 µM (not active)
same,EC50,[2],> 300 µM (not active)
same,EC50,[3],> 195 µM (not active)
COc1c2ccoc2nc2c(OC)c(OC[C@H](O)C(C)(C)O)ccc12,AC50,Cytochrome P450 1A2,10 µM (inconclusive)
same,AC50,Cytochrome P450 3A4,15.8 µM (inconclusive)
same,AC50,Cytochrome P450 2C9,inconclusive
Cc1[nH]c2ccccc2c1-c1cc(-c2cc(-c3c(C)[nH]c4ccccc34)on2)no1,AC50,Cytochrome P450 2C9,inconclusive
CCOc1cc(-c2sc(Nc3cc(C)ccc3OC)n[n+]2-c2ccccc2)ccc1OC,CC50,[4],> 40 µM (active)
same,IC50,cells,> 50 µM (active)
same,AC50,INS1,12.9 µM (active)
Cc1cc(Cl)ccc1OC(C)C(=O)Nc1ccc(S(=O)(=O)Nc2cnc3ccccc3n2)cc1 (stereo unspecified),AC50,Cytochrome P450 2C19; read-out: AC50,14.1 µM (inconclusive)
same,IC50,[5],13.8 µM (active)
same,AC50,Cytochrome P450 2D6,28.2 µM (inconclusive)
O=C(NC(=S)NNC(=O)c1ccccc1O)c1cccc([N+](=O)[O-])c1,IC50,Nonstructural protein 1,15.3 µM (active)
CCOC(=O)c1c(C)c(C(=O)N2CCc3ccccc3C2)c(C)n1CC,IC50,[5],13.8 µM (active)
COc1ccc(CCCc2nc3ccccc3[nH]2)cc1,EC50,[1],> 300 µM (not active)
same,EC50,[2],> 300 µM (not active)
Cc1c2ccccc2nc2c(F)c(NC(C)C)c(F)c(F)c12,EC50,[1],> 300 µM (not active)
same,EC50,[2],> 300 µM (not active)
COc1ccc(Cc2nnc(NN)nc2O)cc1OC,IC50,Nonstructural protein 1,15.5 µM (active)
CN(C)S(=O)(=O)Oc1ccccc1C(=O)Nc1cccc(C(F)(F)F)c1,AC50,Cytochrome P450 2C9,inconclusive
CC(=O)N1c2ccc(S(=O)(=O)NCCC(=O)NC3CCCC(C)C3C)cc2CC1C (stereo unspecified),IC50,[5],13.2 µM (active)
CCOC(=O)C1(CC2CCCCO2)CCN(Cc2nc(-c3cccs3)oc2C)CC1 (stereo unspecified),EC50,[6],> 92.5 µM (inactive)
same,EC50,Mu-type opioid receptor,> 92.5 µM (inactive)
same,EC50,[7],> 92.5 µM (inactive)
CCc1ccc(NC(=O)Nc2ccc3c(c2)N(C)C(=O)CS3)cc1,EC50,[6],35.7 µM (inactive)
same,EC50,Mu-type opioid receptor,36.7 µM (inactive)
same,EC50,[7],> 92.5 µM (inactive)
Cc1ccc(CC(=O)NCC(c2ccco2)N(C)C)cc1C (stereo unspecified),EC50,[6],> 92.4 µM (inactive)
same,EC50,Mu-type opioid receptor,> 92.4 µM (inactive)
same,EC50,[7],> 92.4 µM (inactive)
O=C(N[C@H]1C/C=C\C[C@H](CC(=O)N(CCO)Cc2ccccc2)C(=O)N[C@H](Cc2c[nH]c3ccccc23)COC1=O)OCC1c2ccccc2-c2ccccc21,EC50,[6],> 92.5 µM (inactive)
same,EC50,Mu-type opioid receptor,> 92.5 µM (inactive)
same,EC50,[7],> 92.5 µM (inactive)
COCCNC(=O)C1CC(c2cccc(OC)c2)=NO1 (stereo unspecified),AC50,Cytochrome P450 2C9,inconclusive
CCCN(C(=O)c1cn(CC)c2nc(C)ccc2c1=O)c1c(N)n(Cc2ccccc2)c(=O)[nH]c1=O,IC50,[5],12.6 µM (active)
CC(=O)N/N=C/c1cc([N+](=O)[O-])ccc1OCCOc1ccccc1,AC50,Cytochrome P450 2C19,inconclusive
same,AC50,Cytochrome P450 2C9,inconclusive
CN1CCN(CCC(=O)N/N=C/c2cc([N+](=O)[O-])ccc2O)CC1,IC50,Nonstructural protein 1,17.3 µM (active)
COC(=O)[C@@H]1[C@H]2C[C@H]3c4[nH]c5ccccc5c4CCN3C[C@@H]2CC[C@@H]1O [YOHIMBINE],EC50,[1],> 300 µM (not active)
same,EC50,[2],103 µM (active)
